Data from patent US9233127B2, “Compositions and methods for CXCR4 signaling and umbilical cord blood stem cell engraftment” (University of Virginia Patent Foundation, priority 2012, dated 2016).
Entries after “also recorded” stand apart in the source; their conditions may differ.

How the values were obtained:
CXCR4 [1] = experiment: FACS analysis of CXCR4 expression on BM or UCB CD34+ cells; type: cell-based, human; parameters: dose or concentration left out as unconfirmed; details: 0, 12, and 24 hrs
Source text: (§1) In another set of experiments, we attempted to elucidate the molecular mechanisms by which C3a enhances the responsiveness of hematopoietic cells to an SDF-1 gradient. […] However, we observed that actin polymerization of CD34^+ cells to a low dose of SDF-1 was enhanced in the presence of C3a.

UCB CD34+ cells = experiment: Actin polymerization in CD34+ cells; type: cell-based, human; details: in the presence of C3a
Source text: Exposure of UCB CD34^+ cells to a low dose of SDF-1 promotes actin polymerization which is enhanced by the presence of C3a.
as §1

[2] = tested on: human umbilical vein endothelial cells; experiment: Adhesion of UCB CD34+ cells to endothelial cells; type: cell-based
CXCR4 [3] = experiment: CXCR4 incorporation into membrane lipid rafts of UCB CD34+ HSC; type: cell-based, human; details: short-term (15-30 min) exposure to C3a
Protocol: FIG. 14—Priming effect depends on inclusion of CXCR4 into membrane lipid rafts. […] comprises three rows and three columns of images of micrographs. Lipid raft formation on normal human UCB-derived CD34^+ cells not stimulated (control) or stimulated with C3a or desArgC3a. For visualization of lipid rafts, CD34^+ cells were fixed in 3.7% paraformaldehyde/Ca- and Mg-free PBS for 15 min and permeabilized by Triton X-100 in PBS for 5 min at room temperature (RT). The primary antibodies used for raft analysis are cholera toxin B-subunit conjugated with Fluorescein Isothiocyanate (FITC) (Sigma Aldrich, St. Louis, Mo.) and mouse monoclonal anti-hCXCR4 immunoglobulin (Ig)G (R&D Systems, Minneapolis, Minn.). After rinsing in phosphate-buffered saline (PBS), the sections were incubated with Alexa Fluor 568 goat anti-mouse IgG (Molecular Probes, Eugene, Oreg.) for 45 min.

[4] = tested on: murine BM-derived Sca-1+ cells; experiment: Homing of primed murine Sca-1+ cells into BM of lethally irradiated syngeneic mice; type: in vivo; details: Sca-1+ cells preincubated with C3a 30 min, 16 hrs after transplant
Source text: FIG. 16A-B—Panel A: C3a primes homing of murine CFU-GM and CFU-S into BM of lethally irradiated mice. Murine BM-derived Sca-1^+ cells (10^5/mouse) were transplanted into lethally irradiated syngeneic mice. At 16 hrs after transplant, cells were recovered from the femurs of transplanted animals and assayed in secondary cultures for the number of clonogenic CFU-GM (left panel) and, after transplant into secondarily irradiated animals, for the number of day-12 CFU-S (right panel). Data are pooled from three independent experiments using 10 mice each/tested cells (n=30). * p<0.0001. No HSPC cells were recovered from the marrow cavities of control animals (irradiated, not transplanted) Panel B: C3a primes homing of human CB and BM CD34^+ cells into the BM of lethally irradiated NOD/SCID mice. At 16 hrs after transplantation of human CD34^+ cells (10^6/animal), mice were sacrificed and CFU-GM colonies were assayed in methylcellulose cultures. Data are pooled from independent experiments preformed on three different CB- and three different BM samples using 2-4 mice/tested cell sample. p<0.0001.
As final proof of our hypothesis and to test whether the primed cells home better to BM, we primed murine BM-derived Sca-1^+ and human BM- and UCB-derived CD34^+ cells with C3a before their transplantation into lethally irradiated mice. […]

[5] = tested on: UCB MNC and CD4+45RA+ T-cells; experiment: Transmigration of UCB MNC and CD4+/45RA+ T-cells to SDF-1 without and with C3a priming; type: cell-based, human; details: C3a 1 μg/ml 30 minutes; SDF-1 10 ng/ml, 3 h
Protocol: FIG. 30A-B—UCB MNC migration to SDF-1. Lymphocytes from SSC/FSC plots were gated to determine the number of transmigrating UCB CD45^+CD4^+ T-cells. A. The total number of transmigrated lymphocytes migrating without and with C3a priming prior to exposure to 10 ng/ml SDF-1 (mean±SD). […] All staining patterns of labeled cells were compared to cells incubated with APC- and PerCP-isotype antibodies to set negative quadrants gates.
FIG. 31A-B—UCB CD4^+45RA T-cell migration to SDF-1. […] A. Percentage of selected CD4^+/45RA^+ T-cells transmigrating without and with C3a priming prior to exposure to 10 ng/ml SDF-1 (mean±SD). B. CD45^+CD4^+ T-cells were observed only in gate P3 in contrast to the transmigration of MNC.
Cord blood MNC (FIG. 30A-B) isolated by Ficoll density gradient centrifugation or naïve CD4^+/45RA^+ T-cells (FIG. 31A-B below), isolated from MNC fractions (Miltenyi), were incubated in DMEM media with 1% human serum albumin or exposed to complement protein C3a (1 μg/ml) for 30 minutes at RT. […] Transmigrated cells were counted (Z Series Coulter counter) and stained with anti-CD4-PerCP anti-CD45-APC antibodies for 20 min in PBS buffer with 10% FBS prior to flow cytometric analyses on a […] in […], cells were fixed in 2% paraformaldehyde prior to acquisition. […]

UCB MNC = experiment: In vitro migration assay UCB (CD34+ HSC enumerated by FACS); type: cell-based, human; details: C3a 1 ug/ml; 3 h chemotaxis assay
Protocol: FIG. 52—In Vitro Migration Assay UCB. UCB MNC are loaded in the top chamber and the number of CD34^+ HSC present after the 3 h chemotaxis assay in the lower chambers from trans-wells are enumerated by FACS.

With “C3a: 77 amino acid residue protein derived from the human complement C3a precursor; SEQ ID NO:1” the “CXCR4 expression after C3a exposure” value (CXCR4 [1]) was “not enhanced; also recorded: negative results”, the “actin polymerization of CD34+ cells to a low dose of SDF-1” value (UCB CD34+ cells) was “enhanced” and the “adhesion of UCB CD34+ cells to human umbilical vein endothelial cells” value ([2]; C3a) was “increases adhesion”. The “adhesion of CD34+ cells” value ([2]; combination of C3a priming and SDF-1) was “only to a slight increase”, the “CXCR4 incorporation into membrane lipid rafts” value (CXCR4 [3]) was “enhances CXCR4 incorporation” and the “homing of murine CFU-GM and CFU-S into BM” value [4] was “home more efficiently; also recorded: homed better; also recorded: primes homing”. The “migration of UCB MNC or naïve CD45+ CD4+ cells to a low SDF-1 gradient” value [5] was “prime migration of a portion of the cell populations” and the “rates of UCB chemotaxis in vitro” value (UCB MNC) was “significantly higher rates”.
